Columns and labels:
[1] = test system: IPOHE (Morningglory, Ivyleaf); experiment: Preemergence herbicidal evaluation; assay type: in vivo, Ipomoea hederacea; conditions: rated 4-5 weeks after treatment
Method in brief: (§1)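 Visual 0-9 rating vs control (stand, vigor, malformation, size, chlorosis, overall appearance), scored 4-5 wk after spraying. Seeded soil cups were treated preemergence with compound in aqueous acetone, ~0.0156-0.500 kg/ha equivalent.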

ABUTH (Velvetleaf) = experiment: Postemergence herbicidal evaluation; assay type: in vivo, Abutilon theophrasti; conditions: postemergence
Method in brief: (§2)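 Each compound, dispersed in an acetone/water mix (50/50) carrying 0.5% TWEEN 20, is nozzle-sprayed at 40 psi on approximately two-week-old seedlings at about 0.0156–0.500 kg/ha. Plants are assessed 4–5 weeks afterward on a 0–9 scale relative to control; duplicate tests are averaged.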

AMBEL (Ragweed, Common) = experiment: Postemergence herbicidal evaluation; assay type: in vivo, Ambrosia artemisifolia; conditions: postemergence
Method in brief: as §2

ECHCG (Barnyardgrass) [2] = experiment: Postemergence herbicidal evaluation; assay type: in vivo, Echinochloa crus-galli; conditions: postemergence
Method in brief: as §2

SETVI (Foxtail, Green) = experiment: Postemergence herbicidal evaluation; assay type: in vivo, Setaria viridis; conditions: postemergence
Method in brief: as §2

[3] = test system: CHEAL (Lambsquarters, Common); experiment: Preemergence herbicidal evaluation; assay type: in vivo, Chenopodium album; conditions: rated 4-5 weeks after treatment
Method in brief: as §1

[4] = test system: GLXMAW (Soybean, Williams); experiment: Postemergence herbicidal evaluation; assay type: in vivo, Glycine max, (L.) Merr. cv Williams; conditions: postemergence
Method in brief: as §2

[5] = test system: IPOHE (Morningglory, Ivyleaf); experiment: Postemergence herbicidal evaluation; assay type: in vivo, Ipomoea hederacea; conditions: postemergence
Method in brief: as §2

[6] = test system: TRZAWR (Wheat, Winter, cv Riband); experiment: Postemergence herbicidal evaluation; assay type: in vivo, Triticum aestivum; conditions: postemergence
Method in brief: as §2

ECHCG (Barnyardgrass) [7] = experiment: Preemergence herbicidal evaluation; assay type: in vivo, Echinochloa crus-galli; conditions: rated 4-5 weeks after treatment
Method in brief: as §1

CASOB (Sicklepod) = experiment: Preemergence herbicidal evaluation; assay type: in vivo, Cassia obtusifolia; conditions: rated 4-5 weeks after treatment
Method in brief: as §1

ZEAMX (Corn, Field) = experiment: Preemergence herbicidal evaluation; assay type: in vivo, Zea mays; conditions: rated 4-5 weeks after treatment
Method in brief: as §1

GALAP (Galium) = experiment: Preemergence herbicidal evaluation; assay type: in vivo, Galium aparine; conditions: rated 4-5 weeks after treatment
Method in brief: as §1

[8] = test system: ECHORC (Watergrass (Calif.)); experiment: Postemergence weed control under flooded paddy conditions; assay type: in vivo, Echinochloa oryzoides; conditions: postemergence weeds, 3-4 weeks after treatment
Method in brief: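 Flood-water application, about 0.0313–0.500 kg/ha a.i. in aqueous/acetone 50/50 v/v; water depth 1.5–3 cm throughout. Weeds 3–5 cm, rice 1.5–2.5 leaf. Greenhouse; 0–9 visual rating vs control at 3–4 wk.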

CCOC(=O)CN1C(=O)C(C)SC1=Nc1cc(-n2c(=O)cc(C(F)(F)F)n(C)c2=O)c(F)cc1Cl (stereo not shown) [Compound 12]
5.5: TRZAWR herbicidal rating ([6]; rate 0.0156 kg/ha) | ZEAMX preemergence herbicidal rating (ZEAMX (Corn, Field); rate 0.0625 kg/ha)
8.0: GLXMAW herbicidal rating ([4]; rate 0.1250 kg/ha)
6.0: ECHCG preemergence herbicidal rating (ECHCG (Barnyardgrass) [7]; rate 0.0625 kg/ha) | CASOB preemergence herbicidal rating (CASOB (Sicklepod); rate 0.2500 kg/ha)
8.5: GLXMAW herbicidal rating ([4]; rate 0.0625 kg/ha) | ZEAMX preemergence herbicidal rating (ZEAMX (Corn, Field); rate 0.2500 kg/ha) | Herbicidal rating ECHORC ([8]; rate 0.1250 kg/ha)
4.0: ECHCG herbicidal rating (ECHCG (Barnyardgrass) [2]; rate 0.0625 kg/ha) | SETVI herbicidal rating (SETVI (Foxtail, Green); rate 0.0313 kg/ha) | ZEAMX preemergence herbicidal rating (ZEAMX (Corn, Field); rate 0.0156 kg/ha)
9.0: IPOHE preemergence herbicidal rating ([1]; rate 0.0313 kg/ha) | IPOHE preemergence herbicidal rating ([1]; rate 0.0625 kg/ha) | IPOHE preemergence herbicidal rating ([1]; rate 0.1250 kg/ha) | IPOHE preemergence herbicidal rating ([1]; rate 0.2500 kg/ha) | ABUTH herbicidal rating (ABUTH (Velvetleaf); rate 0.0156 kg/ha) | ABUTH herbicidal rating (ABUTH (Velvetleaf); rate 0.0313 kg/ha) | ABUTH herbicidal rating (ABUTH (Velvetleaf); rate 0.0625 kg/ha) | ABUTH herbicidal rating (ABUTH (Velvetleaf); rate 0.1250 kg/ha) | AMBEL herbicidal rating (AMBEL (Ragweed, Common); rate 0.0313 kg/ha) | AMBEL herbicidal rating (AMBEL (Ragweed, Common); rate 0.1250 kg/ha) | ECHCG herbicidal rating (ECHCG (Barnyardgrass) [2]; rate 0.1250 kg/ha) | SETVI herbicidal rating (SETVI (Foxtail, Green); rate 0.0625 kg/ha) | SETVI herbicidal rating (SETVI (Foxtail, Green); rate 0.1250 kg/ha) | CHEAL preemergence herbicidal rating ([3]; rate 0.0156 kg/ha) | CHEAL preemergence herbicidal rating ([3]; rate 0.0313 kg/ha) | CHEAL preemergence herbicidal rating ([3]; rate 0.0625 kg/ha) | CHEAL preemergence herbicidal rating ([3]; rate 0.1250 kg/ha) | CHEAL preemergence herbicidal rating ([3]; rate 0.2500 kg/ha) | IPOHE herbicidal rating ([5]; rate 0.0156 kg/ha) | IPOHE herbicidal rating ([5]; rate 0.0313 kg/ha) | IPOHE herbicidal rating ([5]; rate 0.0625 kg/ha) | IPOHE herbicidal rating ([5]; rate 0.1250 kg/ha) | ECHCG preemergence herbicidal rating (ECHCG (Barnyardgrass) [7]; rate 0.1250 kg/ha) | ECHCG preemergence herbicidal rating (ECHCG (Barnyardgrass) [7]; rate 0.2500 kg/ha) | GALAP preemergence herbicidal rating (GALAP (Galium); rate 0.0625 kg/ha) | GALAP preemergence herbicidal rating (GALAP (Galium); rate 0.1250 kg/ha) | GALAP preemergence herbicidal rating (GALAP (Galium); rate 0.2500 kg/ha) | Herbicidal rating ECHORC ([8]; rate 0.0625 kg/ha) | Herbicidal rating ECHORC ([8]; rate 0.2500 kg/ha)
2.0: ECHCG preemergence herbicidal rating (ECHCG (Barnyardgrass) [7]; rate 0.0156 kg/ha)
1.0: ECHCG herbicidal rating (ECHCG (Barnyardgrass) [2]; rate 0.0313 kg/ha)
0.0: ECHCG herbicidal rating (ECHCG (Barnyardgrass) [2]; rate 0.0156 kg/ha) | SETVI herbicidal rating (SETVI (Foxtail, Green); rate 0.0156 kg/ha) | CASOB preemergence herbicidal rating (CASOB (Sicklepod); rate 0.0156 kg/ha) | CASOB preemergence herbicidal rating (CASOB (Sicklepod); rate 0.0313 kg/ha) | GALAP preemergence herbicidal rating (GALAP (Galium); rate 0.0156 kg/ha) | GALAP preemergence herbicidal rating (GALAP (Galium); rate 0.0313 kg/ha)
6.5: ZEAMX preemergence herbicidal rating (ZEAMX (Corn, Field); rate 0.1250 kg/ha)
7.5: TRZAWR herbicidal rating ([6]; rate 0.0625 kg/ha) | TRZAWR herbicidal rating ([6]; rate 0.1250 kg/ha)
5.0: GLXMAW herbicidal rating ([4]; rate 0.0156 kg/ha) | ECHCG preemergence herbicidal rating (ECHCG (Barnyardgrass) [7]; rate 0.0313 kg/ha) | ZEAMX preemergence herbicidal rating (ZEAMX (Corn, Field); rate 0.0313 kg/ha) | Herbicidal rating ECHORC ([8]; rate 0.0313 kg/ha)
7.0: AMBEL herbicidal rating (AMBEL (Ragweed, Common); rate 0.0156 kg/ha) | AMBEL herbicidal rating (AMBEL (Ragweed, Common); rate 0.0625 kg/ha) | GLXMAW herbicidal rating ([4]; rate 0.0313 kg/ha) | TRZAWR herbicidal rating ([6]; rate 0.0313 kg/ha)
4.5: IPOHE preemergence herbicidal rating ([1]; rate 0.0156 kg/ha) | CASOB preemergence herbicidal rating (CASOB (Sicklepod); rate 0.0625 kg/ha) | CASOB preemergence herbicidal rating (CASOB (Sicklepod); rate 0.1250 kg/ha)

CCOC(=O)CN1C(=O)C(CC)SC1=Nc1cc(-n2c(=O)cc(C(F)(F)F)n(C)c2=O)c(F)cc1Cl (stereo not shown) [Compound 13, Ethyl 2-{{2-chloro-5-[3,6-dihydro-3-methyl-2,6-dioxo-4-(trifluoromethyl)-1(2H)-pyrimidinyl]-4-fluorophenyl}imino}-5-ethyl-4-oxo-3-thiazolidineacetate]
3.0: ECHCG herbicidal rating (ECHCG (Barnyardgrass) [2]; rate 0.0625 kg/ha) | CASOB preemergence herbicidal rating (CASOB (Sicklepod); rate 0.2500 kg/ha)
9.0: IPOHE preemergence herbicidal rating ([1]; rate 0.0625 kg/ha) | IPOHE preemergence herbicidal rating ([1]; rate 0.2500 kg/ha) | ABUTH herbicidal rating (ABUTH (Velvetleaf); rate 0.0156 kg/ha) | ABUTH herbicidal rating (ABUTH (Velvetleaf); rate 0.0313 kg/ha) | ABUTH herbicidal rating (ABUTH (Velvetleaf); rate 0.0625 kg/ha) | ABUTH herbicidal rating (ABUTH (Velvetleaf); rate 0.1250 kg/ha) | AMBEL herbicidal rating (AMBEL (Ragweed, Common); rate 0.0313 kg/ha) | AMBEL herbicidal rating (AMBEL (Ragweed, Common); rate 0.0625 kg/ha) | AMBEL herbicidal rating (AMBEL (Ragweed, Common); rate 0.1250 kg/ha) | SETVI herbicidal rating (SETVI (Foxtail, Green); rate 0.1250 kg/ha) | CHEAL preemergence herbicidal rating ([3]; rate 0.0156 kg/ha) | CHEAL preemergence herbicidal rating ([3]; rate 0.0313 kg/ha) | CHEAL preemergence herbicidal rating ([3]; rate 0.0625 kg/ha) | CHEAL preemergence herbicidal rating ([3]; rate 0.1250 kg/ha) | CHEAL preemergence herbicidal rating ([3]; rate 0.2500 kg/ha) | IPOHE herbicidal rating ([5]; rate 0.0156 kg/ha) | IPOHE herbicidal rating ([5]; rate 0.0313 kg/ha) | IPOHE herbicidal rating ([5]; rate 0.0625 kg/ha) | IPOHE herbicidal rating ([5]; rate 0.1250 kg/ha) | Herbicidal rating ECHORC ([8]; rate 0.2500 kg/ha)
2.5: IPOHE preemergence herbicidal rating ([1]; rate 0.0156 kg/ha)
5.5: GLXMAW herbicidal rating ([4]; rate 0.0313 kg/ha) | GLXMAW herbicidal rating ([4]; rate 0.0625 kg/ha) | Herbicidal rating ECHORC ([8]; rate 0.0313 kg/ha)
4.5: TRZAWR herbicidal rating ([6]; rate 0.0156 kg/ha) | TRZAWR herbicidal rating ([6]; rate 0.0313 kg/ha)
2.0: ECHCG herbicidal rating (ECHCG (Barnyardgrass) [2]; rate 0.0156 kg/ha) | ECHCG herbicidal rating (ECHCG (Barnyardgrass) [2]; rate 0.0313 kg/ha) | ZEAMX preemergence herbicidal rating (ZEAMX (Corn, Field); rate 0.0313 kg/ha)
7.5: GLXMAW herbicidal rating ([4]; rate 0.1250 kg/ha)
0.0: SETVI herbicidal rating (SETVI (Foxtail, Green); rate 0.0156 kg/ha) | ECHCG preemergence herbicidal rating (ECHCG (Barnyardgrass) [7]; rate 0.0156 kg/ha) | ECHCG preemergence herbicidal rating (ECHCG (Barnyardgrass) [7]; rate 0.0313 kg/ha) | CASOB preemergence herbicidal rating (CASOB (Sicklepod); rate 0.0156 kg/ha) | CASOB preemergence herbicidal rating (CASOB (Sicklepod); rate 0.0313 kg/ha) | CASOB preemergence herbicidal rating (CASOB (Sicklepod); rate 0.0625 kg/ha) | ZEAMX preemergence herbicidal rating (ZEAMX (Corn, Field); rate 0.0156 kg/ha) | GALAP preemergence herbicidal rating (GALAP (Galium); rate 0.0156 kg/ha) | GALAP preemergence herbicidal rating (GALAP (Galium); rate 0.0313 kg/ha) | GALAP preemergence herbicidal rating (GALAP (Galium); rate 0.0625 kg/ha) | GALAP preemergence herbicidal rating (GALAP (Galium); rate 0.1250 kg/ha) | GALAP preemergence herbicidal rating (GALAP (Galium); rate 0.2500 kg/ha)
1.0: ECHCG preemergence herbicidal rating (ECHCG (Barnyardgrass) [7]; rate 0.0625 kg/ha) | CASOB preemergence herbicidal rating (CASOB (Sicklepod); rate 0.1250 kg/ha)
4.0: SETVI herbicidal rating (SETVI (Foxtail, Green); rate 0.0313 kg/ha) | SETVI herbicidal rating (SETVI (Foxtail, Green); rate 0.0625 kg/ha) | ZEAMX preemergence herbicidal rating (ZEAMX (Corn, Field); rate 0.0625 kg/ha)
6.0: TRZAWR herbicidal rating ([6]; rate 0.0625 kg/ha) | TRZAWR herbicidal rating ([6]; rate 0.1250 kg/ha)
7.0: AMBEL herbicidal rating (AMBEL (Ragweed, Common); rate 0.0156 kg/ha) | ECHCG herbicidal rating (ECHCG (Barnyardgrass) [2]; rate 0.1250 kg/ha) | ECHCG preemergence herbicidal rating (ECHCG (Barnyardgrass) [7]; rate 0.1250 kg/ha) | ZEAMX preemergence herbicidal rating (ZEAMX (Corn, Field); rate 0.2500 kg/ha) | Herbicidal rating ECHORC ([8]; rate 0.0625 kg/ha)
8.0: IPOHE preemergence herbicidal rating ([1]; rate 0.1250 kg/ha) | ECHCG preemergence herbicidal rating (ECHCG (Barnyardgrass) [7]; rate 0.2500 kg/ha) | Herbicidal rating ECHORC ([8]; rate 0.1250 kg/ha)
5.0: GLXMAW herbicidal rating ([4]; rate 0.0156 kg/ha) | ZEAMX preemergence herbicidal rating (ZEAMX (Corn, Field); rate 0.1250 kg/ha)
3.5: IPOHE preemergence herbicidal rating ([1]; rate 0.0313 kg/ha)

Reference: patent publication US20020137929A1, “1 - (3-heterocyclylphenyl) isothiourea, -isourea, -guanidine and -amidine herbicidal agents” (Intellectual Property Department, BASF Aktiengesellschaft, priority 1998, published 2002)
